Tested on: NMBR expression by ILC2s
Test: NMBR expression by cultured lung ILC2s, flow cytometry
Assay type: cell-based, mouse
Conditions: ILC2s day 7 post-Nb, survival and/or activating cytokines, day 4 post-culture
Source text: FIG. 9. Basophils regulate NMBR expression. ILC2s were sort-purified from the lung of Nb-infected mice (day 7) and stimulated with survival cytokines (IL-7 and IL-2) and also with activated basophils, IL-4 or IL-33 overnight. NMBR expression was monitored by flow cytometric analysis post-culture. Data are presented as […] mean fluorescent intensity (GMFI). Statistical comparisons were done using a Student's t-test.
FIG. 14. Prostaglandin E2 upregulates expression of NMBR on lymphocytes. Lung ILC2s were sort-purified from the lungs of mice on day 7 post-Nb and cultured with a combination of survival cytokines (IL-2 and IL-7) and/or activating cytokines (IL-25 and IL-33). In addition, cultures were treated with NMB or prostaglandin E2 (PGE2) and the expression of NMBR was measured by flow cytometric analysis on day 4 post-culture. Statistical analysis was performed using a student's t-test. Negative NMBR staining as determined by an isotype control antibody is also shown (Isot).
NMBR expression by lung ILC2s was reduced when basophils are depleted following an Nb infection. To determine whether basophils directly mediate expression of NMBR or whether they operate through intermediate pathways, ILC2s were sort-purified from the lungs of Nb-infected mice (day 7) and cultured with the survival cytokines IL-2 and IL-7. Additionally, the ILC2s were cultured with activated basophils, IL-4, or IL-33 overnight. NMBR expression was subsequently monitored by flow cytometric analysis post-culture.
To better determine the mechanisms through which basophils regulate expression of NMBR on lymphocytes, ILC2s were cultured with a combination of survival and activating cytokines in the presence or absence of NMB or prostaglandin E2 (PGE2).

Substance: H2N-GNLWATGHFM-amide [Nmb]
- NMBR expression by ILC2s: failed to upregulate
